Source: ChEMBL document CHEMBL5108080 (J Med Chem, 2022)

Columns and labels:
Influenza A virus [1] = assay: (§1) Antiviral activity against group 2 influenza A virus H3N2 (A/Hong Kong-11/1968) infected in human A549 cells assessed as inhibition of viral entry preincubated with compound for 30 mins followed by viral infection for 1 hour further incubated for 48 hrs with replacement of fresh medium containing compound; assay type: functional, organism-based
Influenza A virus [2] = assay: as §1, with “H3N2 (A/Victoria/361/2011)” for “H3N2 (A/Hong Kong-11/1968)”, “containing compound.” for “containing compound”; assay type: functional, organism-based

Cc1cc(Br)ccc1-c1nc2ncccn2c1NC1CCCCC1
EC50 (Influenza A virus [1]): 340 nM

c1ccc(-c2nc3ncccn3c2NC2CCCCC2)cc1
EC50 (Influenza A virus [2]): 730 nM | EC50 (Influenza A virus [1]): 71 nM

COc1ccc(-c2nc3ncccn3c2NC2CCCCC2)cc1
EC50 (Influenza A virus [2]): 640 nM | EC50 (Influenza A virus [1]): 30 nM

Fc1ccc(-c2nc3ncccn3c2NC2CCCCC2)cc1
EC50 (Influenza A virus [2]): 420 nM | EC50 (Influenza A virus [1]): 320 nM

Oc1ccc(-c2nc3ncccn3c2NC2CCCCC2)cc1
EC50 (Influenza A virus [2]): 1500 nM | EC50 (Influenza A virus [1]): 360 nM

CCOC(=O)C1=C[C@@H](OC(CC)CC)[C@H](NC(C)=O)[C@@H](N)C1 [OSELTAMIVIR]
EC50 (Influenza A virus [2]): > 10000 nM | EC50 (Influenza A virus [1]): 22 nM

Brc1ccc(-c2nc3ncccn3c2NC2CCCCC2)cc1
EC50 (Influenza A virus [2]): 1500 nM | EC50 (Influenza A virus [1]): 190 nM
